Consider two compounds from US20110124630A1, “STEMONAMIDE SYNTHESIS INTERMEDIATE AND PHARMACEUTICAL COMPOSITION FOR PREVENTION AND/OR TREATMENT OF CANCER” (priority 2008, published 2011).

Data set [1] deals with Pim-3 (Homo sapiens, UniProt Q86V86). Briefly: In vitro assay of Pim-3 kinase activity (His-Bad phosphorylation, ELISA with anti-pBad Ser112 antibody). The format is biochemical. Particulars: 0, 20, 40, 80, 160 μmol/l compound; 10 μmol/l ATP; 30° C. 1 hour; FIG. 1. As to the method:
A His-Bad protein solution (3 μg/ml) diluted with a carbonate buffer (pH 9.6) (15 mmol/l Na2CO3(Wako), […] NaHCO3 (Wako), 0.02% (w/v) NaN3 (Wako), pH 9.6) was added at 100 μl/well to a 96-well microplate (Nunc-Immuno™ Plate, NUNC Brand Products, Nalge Nunc International, Denmark), and the plate was coated at 4° C. overnight. The plate was washed 3 times on the following day, a 1% BSA/PBS(−) solution was added at 150 μl/well, the plate was blocked at 37° C. for 1 hour, and the plate was then washed 3 times. A kinase buffer containing 19.2 nmol/l thioredoxin-hexahistidine-Pim-3 fusion protein, 10 μmol/l ATP (Cell Signaling), and Compounds 5, 7, and 12 synthesized in the examples above (0, 20, 40, 80, and 160 μmol/l) (25 mmol/l Tris-HCl (pH 7.5), 10 mmol/l MgCl2, 0.1 mmol/l Na3VO4, 2 mmol/l dithiothreitol (DTT), 5 mmol/l s-glycerophosphate, Cell Signaling) was added at 40 μl/well to the treated plate. After the reaction was carried out at 30° C. for 1 hour, the plate was washed 5 times, the 1.000-fold diluted anti-pBadser112 rabbit antibody (Cell Signaling) was added at 100 μl/well, and the reaction was carried out at 37° C. for 1 hour. […] The plate was subjected to the absorbance assay at 405 nm using a microplate reader (Model 550, Bio-Rad). […]

Data set [2] deals with PCI66 cell line. The data set is described as follows: Cell growth assay (pancreatic cancer cell), WST-1. The format is cell-based, human. Particulars: Compound 7 4-10 μmol/l, Compound 12 5-30 μmol/l, 0-96 hours, FIG. 7. As to the method: (§1) Human pancreatic cancer cell lines (PCI35, PCI55, PCI66, MiaPaCa-2, L3.6 […], and PANC-1) were dispensed into a 96-well cell culture Microtest Plate (Becton Dickinson) at 3,000 cells/well with 100 μl of culture media. The media were removed 16 to 18 hours after the initiation of culture, and media containing the test compounds (i.e., 0.1% DMSO, Compound 7 (4, 6, 8, 10 μmol/l), Compound 12 (5, 10, 20, 30 μmol/l)) were added at 100 μl/well. After culture was continued for 0, 24, 48, 72, and 96 hours, the medium containing the test compound was removed, and a 10% WST-1 medium (Roche) was added at 100 μl/well. After culture was conducted for an additional 1 hour, the absorbance at 450 nm was assayed using a microplate reader (Model 550, Bio-Rad). RPMI-1640 medium (SIGMA) was used for the PCI35, PCI55, PCI66, MiaPaCa-2, and PANC-1 cell lines, MEM medium (Invitrogen) was used for the L3.6 pl cell lines, and 10% calf serum (Invitrogen), 50 U/ml penicillin G (SIGMA), and 50 μg/ml streptomycin (SIGMA) were added to every medium. The cell lines were cultured in a 37° C. 5% CO2 carbon dioxide incubator (ESPEC).
For orientation: Formazan colour is commonly taken as a measure of viable cells.

Data set [3] concerns PCI35 cell line. The data set is described as follows: Cell growth assay (pancreatic cancer cell), WST-1. The format is cell-based, human. Particulars: Compound 7 4-10 μmol/l, Compound 12 5-30 μmol/l, 0-96 hours, FIG. 2. The procedure: as §1
Data set [4] deals with PANC-1 cell line. The data set is described as follows: Cell growth assay (pancreatic cancer cell), WST-1. The format is cell-based, human. Particulars: Compound 7 4-10 μmol/l, Compound 12 5-30 μmol/l, 0-96 hours, FIG. 4. As to the method: as §1
Data set [5] concerns L3.6 pl cell line. Briefly: Cell growth assay (pancreatic cancer cell), WST-1. In kind it is cell-based, human. Particulars: Compound 7 4-10 μmol/l, Compound 12 5-30 μmol/l, 0-96 hours, FIG. 5. The procedure: as §1
In data set [6] the test system is PCI55 cell line. Briefly: Cell growth assay (pancreatic cancer cell), WST-1. In kind it is cell-based, human. Particulars: Compound 7 4-10 μmol/l, Compound 12 5-30 μmol/l, 0-96 hours, FIG. 3. The procedure:
as §1

Data set [7] deals with MiaPaCa-2 cell line. Briefly: Cell growth assay (pancreatic cancer cell), WST-1. The format is cell-based, human. The note with it: Compound 7 4-10 μmol/l, Compound 12 5-30 μmol/l, 0-96 hours, FIG. 6. As to the method:
as §1

Data set [8] has as its system SW48. Briefly: Cell growth assay (colon cancer cell), WST-1. The format is cell-based, human. The note with it: 4, 6, 8, 10 μmol/l, 0-96 hours, FIG. 9. The procedure:
(§2) Human colon cancer cell lines (SW48, SW480, and HT29 at 3,000 cells/well) were dispensed into a 96-well cell culture Microtest Plate (Becton Dickinson) with 100 μl of culture media. The media were removed 16 to 18 hours after the initiation of culture, and the media containing the test compounds (0.1% DMSO, Compound 7 (4, 6, 8, and 10 μmol/l)) were added at 100 μl/well. After culture was continued for 0, 24, 48, 72, and 96 hours, the medium containing the test compound was removed, and a 10% WST-1 medium (Roche) was added at 100 μl/well. After culture was conducted for an additional 1 hour, the absorbance at 450 nm was assayed using a microplate reader (Model 550, Bio-Rad). RPMI-1640 medium (SIGMA) was used, and 10% calf serum (Invitrogen), 50 U/ml penicillin G (SIGMA), and 50 μg/ml streptomycin (SIGMA) were added to the medium. The cell lines were cultured in a 37° C. 5% CO2 carbon dioxide incubator (ESPEC).

Data set [9] deals with HT29. Briefly: Cell growth assay (colon cancer cell), WST-1. In kind it is cell-based, human. Particulars: 4, 6, 8, 10 μmol/l, 0-96 hours, FIG. 9. The procedure:
as §2

Data set [10] relates to SW480. The data set is described as follows: Cell growth assay (colon cancer cell), WST-1. Particulars: 4, 6, 8, 10 μmol/l, 0-96 hours, FIG. 9. In kind it is cell-based, human. As to the method: as §2
The subject of data set [11] is HepG2. The data set is described as follows: Cell growth assay (liver cancer cell), WST-1. The format is cell-based, human. The note with it: 4, 6, 8, 10 μmol/l, 0-96 hours, FIG. 8. As to the method: as §2, with “liver” for “colon”, “(Hep3B, HuH7,” for “(SW48, SW480,”, “HepG2” for “HT29”, “4000, 3000, and 4000” for “3,000”, “and” for “and the”
The test system of data set [12] is Hep3B. Briefly: Cell growth assay (liver cancer cell), WST-1. Particulars: 4, 6, 8, 10 μmol/l, 0-96 hours, FIG. 8. The format is cell-based, human. As to the method:
as §2, with “liver” for “colon”, “(Hep3B, HuH7,” for “(SW48, SW480,”, “HepG2” for “HT29”, “4000, 3000, and 4000” for “3,000”, “and” for “and the”

The subject of data set [13] is HuH7. The data set is described as follows: Cell growth assay (liver cancer cell), WST-1. In kind it is cell-based, human. Particulars: 4, 6, 8, 10 μmol/l, 0-96 hours, FIG. 8. As to the method: as §2, with “liver” for “colon”, “(Hep3B, HuH7,” for “(SW48, SW480,”, “HepG2” for “HT29”, “4000, 3000, and 4000” for “3,000”, “and” for “and the”

What is called melting point is the temperature of the solid-liquid transition.

`O=C1CC[C@@]23C(=O)CC[C@@H]2CCCCN13` [Compound 5]: in data set [1], the “inhibition of Pim-3 activity” value is given as “inhibit the Pim-3 activity in a concentration-dependent manner”.
`CCOC(=O)C#C[C@@]1(O)/C(=C/c2ccccc2)C[C@@H]2CCCCN3C(=O)CC[C@]231` [Compound 7] gave a melting point of 209 to 211 °C. Further, the “inhibition of Pim-3 activity” value in data set [1] is “inhibit the Pim-3 activity in a concentration-dependent manner”. For the same compound, the “inhibition of cell growth” value in [2] is listed as “inhibit the growth”. Also, the “inhibition of cell growth” value in data set [3] was “inhibit the growth”. Further, the “inhibition of cell growth” value in [4] is given as “inhibit the growth”. Besides, in data set [5], the “inhibition of cell growth” value is reported as “inhibit the growth”. Besides, the “inhibition of cell growth” value in [6] is recorded as “inhibit the growth”. The “inhibition of cell growth” value in data set [7] is reported as “inhibit the growth”. Moreover, in data set [8], the “inhibition of cell growth” value is listed as “inhibit the growth”. Besides, the “inhibition of cell growth” value in data set [9] is reported as “inhibit the growth”. Further, the “inhibition of cell growth” value in data set [10] is “inhibit the growth”. Besides, the “inhibition of cell growth” value in data set [11] is listed as “inhibit the growth”. For the same compound, the “inhibition of cell growth” value in data set [12] is listed as “inhibit the growth”. In addition, the “inhibition of cell growth” value in [13] is “inhibit the growth”.
